Assay results reported in patent publication US20070087988A1, “Hematopoietic progenitor kinase 1 for modulation of an immune response” (New York University, priority 2005, published 2007).

Tests used:
T cells [1] = assay: Apoptosis of TCR-stimulated T cells, annexin V / 7AAD staining; type: cell-based, mouse
EP4 receptor = EP4 receptor (Homo sapiens, UniProt P35408); assay: IVK assay of HA-HPK1 from 293-EP4 transfectants; details: PGE2 stimulation
T cells [2] = assay: Mixed leukocyte reaction (MLR) T cell proliferation, 3H-thymidine; type: cell-based, mouse; details: MLR with LPS-matured BMDCs, addition of PGE2
Protocol: MLR was performed as described in Sallusto et al. (1994, J. Exp. Med. 179:1009-1118) with minor modifications. Naïve T cells from an allogeneic SJL mouse were purified using CD62L magnetic beads (Milentyi Biotech, Inc., CA). In a 96-well round bottom plate, T cells (1×10^5) were used as responders and incubated with HPK1^−/− and wild type, immature or LPS-matured bone marrow derived dendritic cells (BMDCs) as stimulators. Naïve T cells plus 10 μg/ml ConA were used as a positive control.
In these experiments, T cells were purified and subjected to a mixed leukocyte reaction (MLR) with wild type allogeneic BMDCs in the presence or absence of PGE2. […] To assess this, the same study was repeated under conditions where the magnitude of the MLR response was similar in the two cell types by manipulating the T cell to DC ratio. […] Similar resistance to PGE2 was observed when HPK1^−/− T cells were stimulated by T cell receptor activation with anti-CD3- and anti-CD28-mediated crosslinking in the presence of PGE2 (FIG. 20B).

[3] = system: wild type HEK 293-EBNA cell line; assay: IVK assay of HA-HPK1 from wild type HEK 293-EBNA cells (no EP2/EP4); type: cell-based, human; details: absence of EP2 and EP4 receptor, PGE2 stimulation
EP2 receptor = molecular target: T1, EP2 receptor (Homo sapiens, UniProt P43116); assay: IVK assay of HA-HPK1 from 293-EP2 transfectants; type: cell-based; details: PGE2 stimulation
T1 construct: expressed in transfected cells; host or cells: HEK 293 (293-EP2), also transiently transfected with HA-HPK1
T1 sequence (P43116 whole entry): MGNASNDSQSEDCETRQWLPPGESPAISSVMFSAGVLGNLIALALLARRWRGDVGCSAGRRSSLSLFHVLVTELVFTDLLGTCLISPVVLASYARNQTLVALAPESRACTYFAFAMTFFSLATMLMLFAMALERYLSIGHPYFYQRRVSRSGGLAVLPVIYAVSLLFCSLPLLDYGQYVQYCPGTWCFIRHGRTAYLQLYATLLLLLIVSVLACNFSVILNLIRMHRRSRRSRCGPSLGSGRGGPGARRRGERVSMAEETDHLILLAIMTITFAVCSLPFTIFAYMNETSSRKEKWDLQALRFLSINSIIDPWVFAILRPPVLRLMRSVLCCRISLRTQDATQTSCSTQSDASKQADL

T cells [4] = assay: FACS of TCR-stimulated T cells: Foxp3 expression and side-scatter profile; type: cell-based, mouse
Excerpt: This is due in part to the fact that HPK^−/− T cells produce more IL-2. However, other factors may play a role in the increased percentage of cells expressing CD25. To determine whether regulatory T cell (Treg) transcription factor, Foxp3, was a factor, the expression of […] in HPK^−/− cells was examined in this population. It has been shown that PGE2 induces the expression of Foxp3 in both human and mouse T cells. Because of the inhibitory nature of these T cell subsets, there was a question of whether the conditions of stimulation generated fewer Tregs in the HPK1^−/− culture, as this might explain the enhanced functionality of these T cells.
However, a decrease was detected in the number of cells in the side-scatter profile of wild type T cells exposed to PGE2, indicating a decrease in cell viability. […] Indeed, when these cells were stained for annexin V to determine the amount of apoptosis, PGE2 did increase the number of wild type cells undergoing apoptosis by over 75%, compared to 47% in cells not treated with PGE2.

HPK1 [5] = assay: HPK1 IVK assay in primary splenocytes / T lymphocytes; type: cell-based, mouse; details: primary T lymphocytes (C57BL/6 splenocytes), 10 nM PGE2, 5 min
Protocol: Splenocytes from wild type C57BL/6 were harvested, lysed with RBC lysis buffer (Sigma) and stimulated with 1 μg/ml plate bound anti-CD3 and anti-CD28 or 10 nM PGE2 alone (Calbiochem) for 5 min. at 37° C. Whole cell lysates were subjected to immunoprecipitation with anti-HPK1 antibodies #5 and #6, then subjected to IVK as described in Kiefer et al. (1996, EMBO J. 15:7013-7025). Anti-HPK1 antibody #2 was used as a blotting antibody.
Splenocytes from wild type C57BL/6 were harvested, lysed with RBC lysis buffer (Sigma) and stimulated with 1 μg/ml plate bound anti-CD3 and 1 μg/ml soluble anti-CD28 or with 10 nM PGE2 (Calbiochem) for 5 min. at 37° C. Whole cell lysates were subjected to immunoprecipitation with anti-HPK1 antibodies #5 and #6 and then subjected to IVK as described (1). Anti-HPK1 antibody #2 was used as a blotting antibody.

HPK1 [6] = assay: HPK1 immune complex in vitro kinase (IVK) assay, endogenous HPK1 from treated Jurkat cells; type: cell-based, human; details: Jurkat cells, 10 pM PGE2
HPK1 [7] = assay: Western blot of immunoprecipitated HPK1 with anti-phosphorylated PKA substrate antibody; type: cell-based, human; details: Jurkat T cells stimulated with PGE2 for 10 min
Protocol: The primary sequence of HPK1 was examined for the preferred PKA phosphorylation site on HPK1. Within the activation loop of HPK1, there exists a perfect PKA phosphorylation site at serine 171 (FIG. 12A). This serine is conserved in all members of the KHS subfamily of STE20 kinases. To determine whether PKA can directly phosphorylate HPK1 upon stimulation by PGE2, experiments were conducted using an anti-phospho PKA substrate antibody that recognizes the arginine-based motif that is present at sites that are phosphorylated by PKA (FIG. 12A).
In these experiments, Jurkat T cells were stimulated with PGE2 for 10 min., lysed, and immunoprecipitated HPK1 was subjected to Western blot analysis using anti-phosphorylated PKA substrate antibody. […] Similarly, the antibody also recognized HPK1 immunoprecipitated from cells that were treated with anti-CD3 (FIG. 12B, lane 2).

Sequence of EP4 receptor (P35408 whole entry): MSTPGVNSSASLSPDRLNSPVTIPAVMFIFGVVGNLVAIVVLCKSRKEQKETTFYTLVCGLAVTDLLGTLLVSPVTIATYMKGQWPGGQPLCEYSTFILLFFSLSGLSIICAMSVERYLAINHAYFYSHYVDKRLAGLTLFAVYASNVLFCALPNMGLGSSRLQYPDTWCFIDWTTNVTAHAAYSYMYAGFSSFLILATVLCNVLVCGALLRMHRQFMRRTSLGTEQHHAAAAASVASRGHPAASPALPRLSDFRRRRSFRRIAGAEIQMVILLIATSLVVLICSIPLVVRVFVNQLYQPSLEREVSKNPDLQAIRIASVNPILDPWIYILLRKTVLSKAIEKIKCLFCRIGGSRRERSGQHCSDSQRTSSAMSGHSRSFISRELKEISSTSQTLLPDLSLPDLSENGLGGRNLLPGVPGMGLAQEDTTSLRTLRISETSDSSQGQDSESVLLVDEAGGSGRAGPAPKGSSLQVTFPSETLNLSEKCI

## CCCCC[C@H](O)/C=C/[C@H]1[C@H](O)CC(=O)[C@@H]1C/C=C\CCCC(=O)O [PGE2, prostaglandin E2]
T cells [1]; three days of TCR stimulation with PGE2, 47% in cells not treated with PGE2
  wild type cells undergoing apoptosis (annexin V): over 75%
T cells [1]; three days of TCR stimulation, addition of PGE2
  rate of HPK1−/− T cell apoptosis: did not significantly increase
EP4 receptor
  HPK1 kinase activity (IVK), 293-EP4 transfectants: responded robustly
T cells [2]
  inhibition of proliferation, HPK1−/− T cells, MLR: ~25%
  inhibition of proliferation, wild type T cells, MLR: ~90%
[3]
  HPK1 kinase activity (IVK), wild type HEK 293-EBNA: failed to respond
EP2 receptor
  HPK1 kinase activity (IVK), 293-EP2 transfectants: responded robustly
T cells [4]; HPK+/+ or HPK−/− cells, TCR crosslinking 3 days, with versus without PGE2
  Foxp3 expression: did not induce a higher Foxp3 expression
T cells [4]; exposed to PGE2
  number of cells in the side-scatter profile (cell viability), wild type T cells: decrease
T cells [4]; with or without PGE2
  pattern of side-scatter, HPK1−/− T cells: no difference
HPK1 [5]
  increase in HPK1 kinase activity: three-fold
HPK1 [6]
  HPK1 catalytic activity (IVK): activate the catalytic activity of HPK1
HPK1 [7]
  recognition of HPK1 by anti-phosphorylated PKA substrate antibody: recognized the phosphorylated HPK1
